Results on eight compounds are retold here after patent publication US12280060B2, “Methods of treating cancer using neuronal activity inhibiting agents” (Washington University, priority 2021, dated 2025).

Experiment [1] concerns neurofibromas. The settings on record: cited from earlier work.
Experiment [2] relates to midkine. It counts as cell-based, mouse.
Experiment [3] has as its system Nf1+/neo DRG neurons. In kind it is cell-based, mouse.
The test system of experiment [4] is Nf1+/neo RGC neurons. In kind it is cell-based, mouse.
Experiment [5] concerns Nf1+/neo hippocampal neurons. It counts as cell-based, mouse.
Experiment [6] has as its system RAS. It counts as cell-based, mouse.
For experiment [7], the system named is Col1a2. In kind it is cell-based, mouse.
For experiment [8], the system named is midkine. It counts as cell-based, mouse. The source holds these as a separate data set.
The subject of experiment [9] is Nf1f/neo; hGFAP-Cre (Nf1-OPG) mice. In words: In vivo Nf1-OPG (optic pathway glioma) progression. Further details: species or system mouse. The settings on record: for optic nerve proliferation (% Ki67+ cells), fold decrease: mouse, in vivo.
Experiment [10] relates to Nf1+/neo and Nf1-OPG mice. In words: In vivo treatment: Mdk/midkine, Nlgn3, Adam10 expression in retinae and optic nerves. To be noted: for effect on midkine expression in the RGC layer of retinae: 12-week-old Nf1-OPG mice, LTR or lovastatin in vivo; for effect on Nlgn3 RNA expression in vivo: retinae / optic nerves of Nf1+/neo or Nf1-OPG mice. On the set-up: species or system mouse. The method, then:
Supplementary Table 2) and TaqMan Fast Advanced Master Mix (Applied Biosystems) according to the manufacturer's instructions. All reactions were performed using the Bio-Rad CFX96 Real-Time PCR system equipped with Bio-Rad CFX Manager 3.1 software. Gene expression levels of technical replicates were estimated by ΔΔCt method using GAPDH or Gapdh (see e.g., TABLE 2) as reference genes. In total, 17 Nf1^flox/neo; GFAP-Cre (Nf1-OPG) mice were intraperitoneally administered vehicle (saline in 1% methylcellulose; n=9) or 25 mg/Kg body weight lamotrigine (Selleckchem; n=8) from four to six weeks of age, three times a week. The mice were then aged to 12 weeks for optic nerve and RGC analysis. […] The mice were analyzed at 12 weeks of age. […] These mice were analyzed at 24 weeks of age. […] These mice were analyzed at 12 weeks of age. For pNF analyses, Nf1^−/− DRG-NSCs were implanted in sciatic nerves of 8-week-old athymic nude mice as previously described. Briefly, the mice underwent surgery to create a pocket by displacing the quadriceps muscle and exposing their sciatic nerve. In all, 1×10^6 Nf1^−/− DRG-NSCs were implanted in the pocket around the sciatic nerve, such that the cells could be in direct contact with the nerve before the muscle and skin were sutured. Following recovery from the surgery, the mice were intraperitoneally administered vehicle (saline in 1% methylcellulose; n=5) or 25 mg/kg body weight lamotrigine (Selleckchem; n=5) three times a week for 6 weeks prior to histological analysis.

Experiment [11] concerns NF1-pNFs in athymic nude mice. In words: In vivo pNF progression (Nf1-/- DRG-NSCs implanted in sciatic nerve). Further details: species or system mouse.
For experiment [12], the system named is Nf1-mutant neurons. In words: Excitability of Nf1-mutant neurons. It counts as cell-based. The method, then:
(§1) Nf1-mutant neurons were treated with the antiepileptic drug rufinamide. Treatment with rufinamide reduced Midkine expression (see e.g., FIG. 47) and neuronal excitability (see e.g., FIG. 48).

The subject of experiment [13] is Midkine. In words: Mdk (Midkine transcript) levels in Nf1-mutant neurons. It counts as cell-based. The method, then:
as §1

For experiment [14], the system named is Nf1-/- DRG-NSCs. In words: Nf1-/- DRG-NSC proliferation (Ki67+). It counts as cell-based, mouse.
The subject of experiment [15] is Col1a2. In words: COL1A2 RNA expression in mouse Nf1-/- DRG-NSCs. In kind it is cell-based. To be noted: COL1A2 treatment.
The subject of experiment [16] is COL1A2. Briefly: COL1A2 RNA expression in human shNF1 Schwann cells. It counts as cell-based. The settings on record: COL1A2 treatment.
For experiment [17], the system named is human shNF1 Schwann cells. Briefly: Human shNF1 Schwann cell proliferation (Ki67+). In kind it is cell-based. To be noted: shNF1 SCs.
Experiment [18] concerns WT and Nf1+/1809 RGC neurons. It counts as cell-based, mouse.
[19] abbreviates: Nf1-OPG mice, LTR 25 mg/kg/day intraperitoneally, vs vehicle.
Setting [20] is: Nf1-OPG mice, lamotrigine intraperitoneal, 3 months of age, vs vehicle.
[21] abbreviates: 25 mg/kg intraperitoneal three times a week for 6 weeks.
The mark [22] stands for this setting: 25 mg/kg intraperitoneal three times a week for 6 weeks, listed as LTR.

“Also recorded” adds a separate entry of the source. Bounds are passed on as bounds.

`Cc1ccc(=O)n(-c2ccccc2)c1` [Pirfenidone]: the “efficacy in human clinical trials” value in experiment [1] is listed as “no efficacy”.
As to `NC1=N[C@H](O)[C@H]2[C@H]3O[C@]4(O)O[C@@H]([C@@H](O)[C@@]2(N1)[C@@H]4O)[C@]3(O)CO` [TTX, tetrodotoxin], the “effect on midkine expression / secretion” value in experiment [2] is recorded as “reduced”. The “effect on DRG neuron AP firing rate / neuronal activity” value in experiment [3] is given as “reduce”. For the same compound, in experiment [4], the “effect on AP firing rate / RGC activity” value is “reduced” and the “neuronal activity (AP firing rate), fold decrease” value is listed as more than 80 fold. Further, the “effect on AP firing rates” value in experiment [5] is on record as “reduced”. Besides, the “effect on RAS activity (RAS-GTP)” value in experiment [6] was “reduced”. Moreover, in experiment [7], the “Col1a2 secretion / expression, fold reduction” value amounted to 3.6 fold and the “reduction of Col1a2 secretion” value is listed as 73%. In [8], the “effect on midkine secretion / expression” value is “reduced” and the “midkine levels, fold decrease” value was 1.9 fold.
Take `Nc1nnc(-c2cccc(Cl)c2Cl)c(N)n1` [lamotrigine]: the “effect on midkine expression / secretion” value in experiment [2] was “reduced”. In [9] (setting [19]), the “effect on CD3+ cells in optic nerves” value is “reduced”, the “effect on Iba1+ cells in optic nerves” value is on record as “reduced” and the “effect on Ki67+ cells in optic nerves” value is reported as “reduced”. The “effect on OPG development” value in experiment [9] (Nf1-OPG mice, at 3 months of age) is “reduced”. Also, the “effect on optic nerve volumes” value in experiment [9] (Nf1-OPG mice, lamotrigine intraperitoneal, 3 months of age) is reported as “did not decrease”. Also, in experiment [9] (setting [20]), the “T-cell (CD3+ cells) content, fold decrease” value was 1.6 fold and the “microglia (% Iba1+ cells) content, fold decrease” value is on record as 1.7 fold. In addition, in [9] (lamotrigine-treated Nf1-OPG mice), the “optic nerve volumes relative to WT controls, fold increased” value is 1.5 fold. In experiment [9], the “optic nerve proliferation (% Ki67+ cells), fold decrease” value amounted to 1.5 fold. In addition, the “optic nerve proliferation (% Ki67+ cells), fold decrease” value in experiment [9] (ip) was 5.7 fold. Also, the “optic nerve proliferation (% Ki67+ cells), fold decrease” value in experiment [9] (po, 10 mg/kg/day) came out at 4 fold. Further, the “microglia (% Iba1+ cells) content, fold decrease” value in [9] (treatment from 4-8 weeks, 6 month-old Nf1-OPG mice, vs vehicle) came out at 1.4 fold. For the same compound, the “effect on DRG neuron AP firing rate / neuronal activity” value in experiment [3] is recorded as “reduce”. In experiment [4], the “effect on AP firing rate / RGC activity” value is “reduced” and the “firing rates, % decrease” value is reported as more than 80%. For the same compound, in experiment [5], the “effect on AP firing rates” value is “reduced”. Also, the “effect on RAS activity (RAS-GTP)” value in experiment [6] is reported as “reduced”. Besides, the “effect on midkine expression in the RGC layer of retinae” value in experiment [10] is recorded as “reduced”. In experiment [10] (Nf1+/neo mice, LTR in vivo), the “effect on Mdk transcript relative expression in retinae” value is given as “decreased”. Also, in experiment [10] (Nf1+/neo retinae, lamotrigine in vivo, relative to vehicle), the “Mdk RNA and protein levels in retinae, fold decrease” value was 1.9-2.3 fold. Further, in experiment [10] (optic nerves, lamotrigine in vivo, relative to vehicle), the “Mdk levels in optic nerves, fold decrease” value is recorded as 1.7-2 fold. Besides, the “effect on Adam10 RNA expression in vivo” value in [10] (retinae / optic nerves of 12 week-old Nf1+/neo or Nf1-OPG mice, lamotrigine in vivo) is “did not change; also recorded: unchanged”. In addition, in experiment [10] (lamotrigine in vivo), the “effect on Nlgn3 RNA expression in vivo” value is given as “did not change”. In addition, in experiment [10] (lamotrigine in vivo, listed as LTR), the “effect on Nlgn3 RNA expression in vivo” value is “unaltered”. Also, in experiment [7], the “Col1a2 secretion / expression, fold reduction” value was 1.8 fold and the “reduction of Col1a2 secretion” value came out at 47%. Further, in experiment [8], the “effect on midkine secretion / expression” value was “reduced” and the “midkine levels, fold decrease” value came to 2.2 fold. Moreover, in experiment [11] (setting [21]), the “effect on Col1a2 production / immunoreactivity within the tumors” value is recorded as “reduced”, the “effect on neuronal histology (H&E)” value is “partly restored”, the “effect on pNF progression in vivo” value is recorded as “decreases” and the “effect on pNF size” value is recorded as “reduced”. Besides, in experiment [11] (setting [22]), the “effect on Col1a2 production / immunoreactivity within the tumors” value is reported as “decreases”, the “effect on neuronal histology (H&E)” value was “partly restores” and the “effect on pNF size” value is given as “reduces”. Also, the “effect on proliferation (Ki67+ cells) within the tumors” value in experiment [11] (mouse, in vivo) is “reduces”.
For `CC[C@H](C)C(=O)O[C@H]1C[C@@H](C)C=C2C=C[C@H](C)[C@H](CC[C@@H]3C[C@@H](O)CC(=O)O3)[C@H]21` [lovastatin], the “effect on midkine expression in the RGC layer of retinae” value in [10] is “decreased; also recorded: reduced”.
`NC(=O)c1cn(Cc2c(F)cccc2F)nn1` [rufinamide]: the “effect on neuronal excitability” value in experiment [12] is on record as “reduces”. Moreover, the “effect on Mdk (Midkine transcript) levels / Midkine expression” value in experiment [13] was “reduces”.
With “COL1A2: collagen-1A2; neurofibroma mitogen produced by peripheral neurons, applied to Schwann cells and DRG-NSCs”, the “proliferation, fold increase in Ki67+ cells” value in experiment [14] (COL1A2 12.5 μg/mL) and in experiment [17] (COL1A2 12.5 μg/mL) was 2.5-2.9 fold throughout. For the same compound, the “effect on COL1A2 RNA expression” value in experiment [15] and in [16] was “increased” throughout.
For the compound ZD7288, the “effect on midkine expression / secretion” value in [2] is reported as “increases”. In experiment [7], the “DRG Col1a2 secretion, fold increase” value is 2-2.8 fold and the “effect on Col1a2 secretion” value is reported as “increases”. In addition, in experiment [8], the “RGC neuron midkine production, fold increase” value is 14-15 fold and the “effect on midkine production” value was “increased”. Also, in [18], the “effect on Adam10 transcript expression” value was “did not alter” and the “effect on Nlgn3 transcript expression” value is listed as “did not alter”.
collagenase: the “effect on the increase in proliferation conferred by NF1-mutant sensory neuron CM or COL1A2” value in experiment [14] (collagenase) and in experiment [17] (collagenase) was “completely abrogated” in each case.
